Laboratory results from US9700637B2, “Reaction-based fluorescent probes for detecting zinc” (Massachusetts Institute of Technology, priority 2013, dated 2017).

Experiments:
[1] = Deacetylation kinetics monitored by UV-vis absorbance (metal-mediated and uncatalyzed hydrolysis); type: physicochemical; conditions: 2.75 μM, 125 μM ZnCl2, 37° C., 50 mM PIPES pH 7, 100 mM KCl, absorbance 510 nm
Experimental: FIG. 23 depicts kinetic traces for the deacetylation of DA-ZP1-TPP. The half-life for deacetylation of a 2.75 μM solution of DA-ZP1-TPP, at 37° C. in 50 mM PIPES buffer (pH 7) and 100 mM KCl, was measured in the presence of 125 μM ZnCl2 (+Zn), 250 μM EDTA (−Zn), or 1.25 units of porcine liver esterase (Esterase). The change in absorbance at 520 nm (EDTA and esterase) or 510 nm (ZnCl2) was used to monitor the reaction.
FIG. 26 depicts in vitro characterization of DA-ZP1-A3. (a) UV-vis and (b) fluorescence spectra of a 5 μM solution of DA-ZP1-A3 in buffer (50 mM PIPES, 100 mM KCl; pH 7). Spectra were acquired initially, upon addition of 100 μM ZnCl2, and again after addition of 200 μM EDTA. (c) Time-dependent change in the normalized absorbance of a ca. 5 μM solution DA-ZP1-A3 at 37° C. in buffer (50 mM PIPES, 100 mM KCl; pH 7) in the presence of 100 μM ZnCl2 (λabs=510 nm) or EDTA (λabs=520 nm). (d) Integrated fluorescence intensity of a 1 μM solution of ZP1-A3 (circles) or DA-ZP1-A3 (squares) as a function of pH. […]
DA-ZP1-TPP has a zinc-induced fluorescence response and is relatively stable to uncatalyzed hydrolysis and esterase activity. […] Other late 3d-block transition metal ions, such as Co(II) and Cu(II), can coordinate to DA-ZP1-TPP but are generally not available in appreciable chelatable quantities within the cell. […]

RWPE-2 cells = assay: Mitochondrial zinc uptake imaging in prostate cells; type: cell-based; conditions: RWPE-2, 50 μM ZnCl2 KSFM, 24 h
Experimental: (§1) FIG. 25 depicts decreased mitochondrial zinc uptake in cancerous cell lines. RWPE-1, RWPE-2, and PC-3 prostate cell lines were incubated for 24 h in medium supplemented with (+) and without (−) 50 μM ZnCl2. RWPE-1 is the only cell line that has a statistically significant (p<0.001) increase in mitochondrial zinc uptake when incubated in zinc-enriched media.
(§2) With a new mitochondrial-targeting sensor in hand, we used DA-ZP1-TPP to investigate the ability of prostate cell lines to accumulate zinc within their mitochondria. RWPE-1 and RWPE-2 are a pair of genetically similar cell lines that retain normal epithelial cell morphology, express cytokeratin markers for prostate epithelial cells, and are hormone sensitive. […] To explore the ability of RWPE-1 and -2 cells to sequester zinc in mitochondria, we measured the fluorescence intensity of DA-ZP1-TPP in both lines after the cells were bathed in normal or zinc-enriched (50 μM ZnCl2) keratinocyte serum-free medium (KSFM) for 24 h prior to imaging. RWPE-1 cells bathed in zinc-enriched medium have a fluorescence signal intensity that is ˜2.3-fold higher than cells bathed in normal medium (FIG. 25). […] Importantly, in both cell lines the observed fluorescence signals from DA-ZP1-TPP are sensitive to ZnPT and TPEN and have good correlation with MitoTracker Red, the Pearson's r values being 0.68±0.09 and 0.59±0.1 for RWPE-1 and -2, respectively. […]

RWPE-1 cells = assay: as above; type: cell-based; conditions: RWPE-1, 50 μM ZnCl2 KSFM, 24 h
Experimental: as §1, §2

[2] = Metal ion selectivity of fluorescence response; type: physicochemical; conditions: 50 mM PIPES pH 7, 100 mM KCl, 25° C.
Experimental: FIG. 22 depicts metal ion selectivity of DA-ZP1-TPP. Average normalized fluorescence intensities for a 1.1 μM solution of DA-ZP1-TPP in 50 mM PIPES buffer (pH 7) with 100 mM KCl at 25° C., after addition of 50 μM-2 mM concentrations of various metal ions (white bars), followed by addition of 50 μM ZnCl2 (black bars). The grey column represents the average sensor intensity after addition of 100 μM EDTA. Data were normalized to initial measured emission intensity at λex=495 nm.
DA-ZP1-TPP has a zinc-induced fluorescence response and is relatively stable to uncatalyzed hydrolysis and esterase activity. […] Other late 3d-block transition metal ions, such as Co(II) and Cu(II), can coordinate to DA-ZP1-TPP but are generally not available in appreciable chelatable quantities within the cell. In addition to monitoring selectivity in the fluorescence response, we used UV-vis spectroscopy to investigate the rate and zinc-specificity of metal-mediated ester hydrolysis. […] By monitoring the absorbance of the xanthene it system, we could interrogate deacetylation kinetics in a manner that is independent of the fluorescence response. […] To determine whether ester hydrolysis depends on the metal-binding core of DA-ZP1-TPP, we measured the deacetylation kinetics of fluorescein diacetate (DA-FL) under analogous conditions. […]

CC(=O)Oc1c(Cl)cc2c(c1CN(Cc1ccccn1)Cc1ccccn1)Oc1c(cc(Cl)c(OC(C)=O)c1CN(Cc1ccccn1)Cc1ccccn1)C21OC(=O)c2ccc(C(=O)NCC[P+](c3ccccc3)(c3ccccc3)c3ccccc3)cc21 [DA-ZP1-TPP]
kobs of zinc-induced deacetylation [1]: 0.0855 ± 0.019 s⁻¹ | increase in fluorescence signal, zinc-enriched vs normal medium (RWPE-2 cells): no statistically significant increase | fluorescence signal intensity, zinc-enriched vs normal medium (RWPE-1 cells): ~2.3 fold | metal ion selectivity of fluorescence response [2]: responds to Zn(II) over biologically relevant cations such as Ca(II) and Mg(II)
